{"source": "patent US7687497B2", "about": "“C10-substituted camptothecin analogs” (priority 2007, dated 2010)", "key": {"[1]": {"system": "advanced malignant melanoma", "conditions": "fifteen patients, 90-360 mg/m^2 repeated every 2 weeks; cited from earlier work"}, "[2]": {"conditions": "cited from earlier work"}, "[3]": {"system": "advanced gastrointestinal cancer", "conditions": "cited from earlier work"}, "[4]": {"conditions": "cited from earlier work", "remark": "listed apart in the source"}, "[5]": {"conditions": "clinical studies in Japan alone; cited from earlier work"}, "[6]": {"system": "A2780/WT (wild-type) cells", "assay": "Sulforhodamine B (SRB) cytotoxicity assay in A2780/WT cells", "type": "cell-based", "conditions": "Homo sapiens, A2780, read-out: A2780/WT (nM)", "description": "(§1) Each of the testing conditions used in this study in both A2780/WT (wild-type) and A2780/DX5 cells were repeated in five to fifteen experiments that were performed on separate days. Each experiment consisted of one microtiter plate with at least eight individual assays of a given drug treatment condition on the plate. The sulforhodamine B (SRB) assay was used to assess cytotoxicity and absorbance at 570 nm (A570) in order to calculate the percentage of cell control (or percent cell survival) for the various treatment conditions in the plate wells.\nRoswell Park Memorial Institute (RPMI 1640) medium, fetal bovine serum (FBS), and L-glutamine were purchased from Gibco BRL. […]\nCells were manipulated in a Class IIA/B3 Biological Safety Cabinet (Forma Scientific) and maintained at 37° C. in a humidified atmosphere containing 5% CO2 in a water-jacketed cell culture incubator (Forma Scientific). Cells were counted using a Coulter-Z1 counter (Beckman-Coulter). […] Percentage of control was correlated to A570 values and determined using a Model EL800 plate reader (Bio-Tek Instruments).\nPopulation doubling times for the two cell lines used in this study encompassed a total of five cell doublings corresponding to approximately 5 days for A2780/WT and A2780/DX5 cells. […] Prior to SRB assays, cell viability was monitored by evaluation of microtiter plate wells. […]"}, "A2780/DX5 cells": {"system": "A2780/DX5 cells", "assay": "Sulforhodamine B (SRB) cytotoxicity assay in A2780/DX5 cells", "type": "cell-based", "conditions": "for IC50 Ratio: A2780/DX5 versus A2780/WT; for IC50: Homo sapiens, A2780, read-out: A2780/DX5 (nM)", "description": "as §1\nRoswell Park Memorial Institute (RPMI 1640) medium, fetal bovine serum (FBS), and L-glutamine were purchased from Gibco BRL. Drugs were dissolved in sterile dimethylsulfoxide (DMSO), from American Type Culture Collection (ATCC) for stock solutions (2.5 to 5.0 mM). Subsequent dilutions were made using cell culture medium (prior to adding the drug to cells). SRB was purchased from Sigma and dissolved in 1.0% acetic acid. Trichloroacetic acid was purchased from VWR International.\nCells were manipulated in a Class IIA/B3 Biological Safety Cabinet (Forma Scientific) and maintained at 37° C. in a humidified atmosphere containing 5% CO2 in a water-jacketed cell culture incubator (Forma Scientific). Cells were counted using a Coulter-Z1 counter (Beckman-Coulter). Following drug treatment, plates were washed using a Biomek 2000 station (Beckman) and, following exposure to SRB dye, plates were washed using an automated plate washer (Model EL404, Bio-Tek Instruments). Percentage of control was correlated to A570 values and determined using a Model EL800 plate reader (Bio-Tek Instruments).\nPopulation doubling times for the two cell lines used in this study encompassed a total of five cell doublings corresponding to approximately 5 days for A2780/WT and A2780/DX5 cells. A2780/WT and A2780/DX5 cells were cultured in RPMI 1640 medium supplemented with 10% fetal bovine serum and 1 mM of L-glutamine. Both cell lines were maintained as monolayered cultures in T-25 or T-75 flasks and then seeded to microtiter plate wells for experiments described herein. Prior to SRB assays, cell viability was monitored by evaluation of microtiter plate wells. […]\nThe sulforhodamine B (SRB) cytotoxicity assay (see, Skehan P, et al., New colorimetric cytotoxicity assay for anticancer-drug screening. J. Natl. Cancer Inst. 82:1107-1112 (1990)) was used to determine the cytotoxic effects of BNP1350, SN-38, topotecan, 9-NH2-CPT, and 9-NO2-CPT on cell growth in vitro. […] Plates were agitated (gently) for 5 minutes and the absorbance values of the SRB dye-protein adduct at a 570 nm wavelength (A570) were determined using an automated microtiter plate reader equipped with an A570 filter (Model EL800, BioTek Instruments)."}, "human cancer cell lines": {"system": "human cancer cell lines", "assay": "In vitro studies on a panel of over 20 human cancer cell lines", "type": "cell-based"}, "[7]": {"conditions": "5-day course 15 mg/m^2 × 5, 9 patients treated"}, "[8]": {"conditions": "5-day course 17 mg/m^2 × 5, 5 patients treated"}, "[9]": {"conditions": "5-day course 20 mg/m^2 × 5, 10 patients treated"}, "[10]": {"conditions": "single dose 110 mg/m^2, 2 patients treated"}, "[11]": {"conditions": "single dose 120 mg/m^2, 7 patients treated"}, "[12]": {"conditions": "single dose 180 mg/m^2, 9 patients treated"}, "[13]": {"conditions": "5-day course (27 patients total), 4 wks"}, "[14]": {"conditions": "5-day course (27 patients total), 8 wks"}, "[15]": {"conditions": "5-day course (27 patients total), 12 wks"}, "[16]": {"conditions": "single-dose method (34 patients total), 3 wks"}, "[17]": {"conditions": "single-dose method (34 patients total), 6 wks"}, "[18]": {"conditions": "single-dose method (34 patients total), 9 wks"}, "[19]": {"conditions": "single-dose method (34 patients total), 12 wks"}}, "note": "Like-named read-outs stand apart in the source and are kept apart here."}
{"compound": "CC[C@@]1(O)C(=O)OCc2c1cc1n(c2=O)Cc2cc3ccccc3nc2-1", "note": "[CPT sodium]", "values": [{"measurement": "less pronounced transient tumor regression", "setting": "[1]", "value": "three"}, {"measurement": "No. of patients with cystitis", "setting": "[2]; 5-day course 11 mg/m^2 × 5, 2 patients treated", "value": 1, "unit": "patients"}, {"measurement": "No. of patients with cystitis", "setting": "[2]; [7]", "value": 4, "unit": "patients"}, {"measurement": "No. of patients with diarrhea", "setting": "[2]; [7]", "value": 1, "unit": "patients"}, {"measurement": "No. of patients with cystitis", "setting": "[2]; [8]", "value": 2, "unit": "patients"}, {"measurement": "No. of patients with diarrhea", "setting": "[2]; [8]", "value": 4, "unit": "patients"}, {"measurement": "No. of patients with cystitis", "setting": "[2]; [9]", "value": 6, "unit": "patients"}, {"measurement": "No. of patients with diarrhea", "setting": "[2]; [9]", "value": 4, "unit": "patients"}, {"measurement": "No. of patients with diarrhea", "setting": "[2]; 5-day course 22 mg/m^2 × 5, 1 patient treated", "value": 1, "unit": "patients"}, {"measurement": "Cystitis, 5-Day Course (% of 27 Patients)", "setting": "[2]; 5-day course", "value": "48 (P < 0.05) %"}, {"measurement": "Number of patients with cystitis", "setting": "[2]; single dose 100 mg/m^2, 6 patients treated", "value": 2, "unit": "patients"}, {"measurement": "Number of patients with cystitis", "setting": "[2]; [10]", "value": 1, "unit": "patients"}, {"measurement": "Number of patients with diarrhea", "setting": "[2]; [10]", "value": 1, "unit": "patients"}, {"measurement": "Number of patients with cystitis", "setting": "[2]; [11]", "value": 2, "unit": "patients"}, {"measurement": "Number of patients with diarrhea", "setting": "[2]; [11]", "value": 4, "unit": "patients"}, {"measurement": "Number of patients with cystitis", "setting": "[2]; [12]", "value": 3, "unit": "patients"}, {"measurement": "Number of patients with diarrhea", "setting": "[2]; [12]", "value": 2, "unit": "patients"}, {"measurement": "Cystitis, Single Dose (% of 34 Patients)", "setting": "[2]; single dose method", "value": 24, "unit": "%"}, {"measurement": "Objective results: Improved", "setting": "[3]; [13]", "value": 1, "unit": "patients"}, {"measurement": "Objective results: Stable", "setting": "[3]; [13]", "value": 12, "unit": "patients"}, {"measurement": "Objective results: Worse", "setting": "[3]; [13]", "value": 14, "unit": "patients"}, {"measurement": "Objective results: Stable", "setting": "[3]; [14]", "value": 7, "unit": "patients"}, {"measurement": "Objective results: Worse", "setting": "[3]; [14]", "value": 20, "unit": "patients"}, {"measurement": "Objective results: Stable", "setting": "[3]; [15]", "value": 6, "unit": "patients"}, {"measurement": "Objective results: Worse", "setting": "[3]; [15]", "value": 21, "unit": "patients"}, {"measurement": "patients with evidence of partial objective improvement", "setting": "[3]; after 2 months (8 or 9 weeks), of 61 patients", "value": "two"}, {"measurement": "patients who showed improvement", "setting": "[3]; at 3 months, of 61 patients", "value": "none"}, {"measurement": "Objective results: Improved", "setting": "[3]; [16]", "value": 4, "unit": "patients"}, {"measurement": "Objective results: Stable", "setting": "[3]; [16]", "value": 17, "unit": "patients"}, {"measurement": "Objective results: Worse", "setting": "[3]; [16]", "value": 13, "unit": "patients"}, {"measurement": "Objective results: Improved", "setting": "[3]; [17]", "value": 2, "unit": "patients"}, {"measurement": "Objective results: Stable", "setting": "[3]; [17]", "value": 11, "unit": "patients"}, {"measurement": "Objective results: Worse", "setting": "[3]; [17]", "value": 21, "unit": "patients"}, {"measurement": "Objective results: Improved", "setting": "[3]; [18]", "value": 2, "unit": "patients"}, {"measurement": "Objective results: Stable", "setting": "[3]; [18]", "value": 8, "unit": "patients"}, {"measurement": "Objective results: Worse", "setting": "[3]; [18]", "value": 24, "unit": "patients"}, {"measurement": "Objective results: Stable", "setting": "[3]; [19]", "value": 6, "unit": "patients"}, {"measurement": "Objective results: Worse", "setting": "[3]; [19]", "value": 28, "unit": "patients"}, {"measurement": "bladder toxicity dose limiting", "setting": "[4]; doses of 20 to 30 mg/m^2", "value": "three"}, {"measurement": "bladder toxicity, additional patients", "setting": "[4]; doses of 30 and 44 mg/m^2", "value": "two"}]}
{"compound": "CCc1c2c(nc3ccc(OC(=O)N4CCC(N5CCCCC5)CC4)cc13)-c1cc3c(c(=O)n1C2)COC(=O)[C@]3(O)CC", "note": "[CPT-11, 7-ethyl-10-[4-(1-piperidino)-1-piperidino]carbonyloxy camptothecin]", "values": [{"measurement": "patient deaths directly attributable to drug toxicity", "setting": "[5]", "value": "approximately 100 patient deaths"}]}
{"compound": "CCOC(=O)COc1ccc2nc3c(c(CC[Si](C)(C)C)c2c1)Cn1c-3cc2c(c1=O)COC(=O)[C@]2(O)CC", "note": "[Compound 9, 7-(2′-Trimethylsilanyl)ethyl-10-(ethoxycarbonylmethoxy) camptothecin]", "values": [{"measurement": "IC50", "setting": "[6]", "value": 73.9, "unit": "nM"}, {"measurement": "IC50 Ratio", "setting": "A2780/DX5 cells", "value": 1.7}, {"measurement": "IC50", "setting": "A2780/DX5 cells", "value": 123, "unit": "nM"}]}
{"compound": "CC[C@@]1(O)C(=O)OCc2c1cc1n(c2=O)Cc2c-1nc1ccc(OC(=O)N3CCOCC3)cc1c2CC[Si](C)(C)C", "note": "[Compound 12, 7-(2′-Trimethylsilanyl)ethyl-10-(4-morpholinecarbonyloxy) camptothecin]", "values": [{"measurement": "IC50", "setting": "[6]", "value": 65.6, "unit": "nM"}, {"measurement": "IC50 Ratio", "setting": "A2780/DX5 cells", "value": 2.1}, {"measurement": "IC50", "setting": "A2780/DX5 cells", "value": 135, "unit": "nM"}]}
{"compound": "CC[C@@]1(O)C(=O)OCc2c1cc1n(c2=O)Cc2c-1nc1ccccc1c2CC[Si](C)(C)C", "note": "[Karenitecin (BNP1350), (4S)-4-ethyl-4-hydroxy-11-[2-(trimethylsilyl)ethyl]-1H-pyrano[3′:4′:6,7]indolizino[1,2-b]quinoline-3,14(4H,12H)-dione]", "values": [{"measurement": "antitumor potency compared with Topotecan or SN-38", "setting": "human cancer cell lines", "value": "significantly more potent"}]}
